Legend:
Assay in all cases: KINOMEscan
Assay type in all cases: binding
Conditions in all cases: 1 μM of compound 4; read-out: POC
[1] = molecular target: ANKK1 (Homo sapiens, UniProt Q8NFD2)
[2] = molecular target: ASK1 (Homo sapiens, UniProt Q99683)
[3] = molecular target: CASK (Homo sapiens, UniProt O14936)
[4] = molecular target: CDK4-cyclinD1 (Homo sapiens, UniProt P11802)
[5] = molecular target: CLK2 (Homo sapiens, UniProt P49760)
[6] = molecular target: CSNK1A1L (Homo sapiens, UniProt Q8N752)
[7] = molecular target: CSNK1D (Homo sapiens, UniProt P48730)
[8] = molecular target: T1, EGFR(L747-S752del + P753S) (Homo sapiens, UniProt P00533, DEL747-752/P753S)
T1 construct: purchased Eurofins DiscoverX (KINOMEscan service)

[9] = molecular target: T2, EPHA2 (Homo sapiens, UniProt P29317)
T2 construct: purchased Eurofins DiscoverX (KINOMEscan service)

[10] = molecular target: T3, EPHA3 (Homo sapiens, UniProt P29320)
T3 construct: purchased Eurofins DiscoverX (KINOMEscan service)

[11] = molecular target: T4, FAK (Homo sapiens, UniProt Q05397)
T4 construct: purchased Eurofins DiscoverX Corporation

[12] = molecular target: T5, GCN2(Kin.Dom.2 + S808G) (Homo sapiens, UniProt Q9P2K8, S808G)
T5 construct: GCN2(Kin.Dom.2 + S808G); purchased Eurofins DiscoverX Corporation

[13] = molecular target: T6, HIPK2 (Homo sapiens, UniProt Q9H2X6)
T6 construct: purchased Eurofins DiscoverX Corporation

[14] = molecular target: INSR (Homo sapiens, UniProt P06213)
[15] = molecular target: JAK1(JH2domain-pseudokinase) (Homo sapiens, UniProt P23458)
[16] = molecular target: LKB1 (Homo sapiens, UniProt Q15831)
[17] = molecular target: LZK (Homo sapiens, UniProt O43283)
[18] = molecular target: MEK4 (Homo sapiens, UniProt P45985)
[19] = molecular target: MERTK (Homo sapiens, UniProt Q12866)
[20] = molecular target: MET(M1250T) (Homo sapiens, UniProt P08581, M1250T)
[21] = molecular target: MST4 (Homo sapiens, UniProt Q9P289)
[22] = molecular target: T7, p38-delta (Homo sapiens, UniProt O15264)
T7 construct: purchased Eurofins DiscoverX Corporation (KINOMEscan)

[23] = molecular target: T8, PAK6 (Homo sapiens, UniProt Q9NQU5)
T8 construct: purchased Eurofins DiscoverX Corporation (KINOMEscan)

[24] = molecular target: T9, PDGFRB (Homo sapiens, UniProt P09619)
T9 construct: purchased Eurofins DiscoverX Corporation (KINOMEscan)

[25] = molecular target: T10, PFTAIRE2 (Homo sapiens, UniProt Q96Q40)
T10 construct: purchased Eurofins DiscoverX Corporation (KINOMEscan)

[26] = molecular target: PHKG2 (Homo sapiens, UniProt P15735)
[27] = molecular target: PIK3C2B (Homo sapiens, UniProt O00750)
[28] = molecular target: PIK3CD (Homo sapiens, UniProt O00329)
[29] = molecular target: PIKFYVE (Homo sapiens, UniProt Q9Y2I7)
[30] = molecular target: PKN2 (Homo sapiens, UniProt Q16513)
[31] = molecular target: PRKX (Homo sapiens, UniProt P51817)
[32] = molecular target: T11, ROCK1 (Homo sapiens, UniProt Q13464)
T11 construct: purchased Eurofins DiscoverX Corporation (KINOMEscan screening service)

[33] = molecular target: T12, RSK4(Kin.Dom.1-N-terminal) (Homo sapiens, UniProt Q9UK32)
T12 construct: RSK4(Kin.Dom.1-N-terminal); purchased Eurofins DiscoverX (KINOMEscan service)

[34] = molecular target: T13, S6K1 (Homo sapiens, UniProt P23443)
T13 construct: purchased Eurofins DiscoverX (KINOMEscan service)

[35] = molecular target: T14, SRPK3 (Homo sapiens, UniProt Q9UPE1)
T14 construct: purchased Eurofins DiscoverX (KINOMEscan service)

[36] = molecular target: T15, STK35 (Homo sapiens, UniProt Q8TDR2)
T15 construct: purchased Eurofins DiscoverX (KINOMEscan service)

[37] = molecular target: T16, TNK1 (Homo sapiens, UniProt Q13470)
T16 construct: purchased Eurofins DiscoverX Corporation

[38] = molecular target: T17, WNK2 (Homo sapiens, UniProt Q9Y3S1)
T17 construct: purchased Eurofins DiscoverX

Sequence of CDK4-cyclinD1 (P11802 whole entry): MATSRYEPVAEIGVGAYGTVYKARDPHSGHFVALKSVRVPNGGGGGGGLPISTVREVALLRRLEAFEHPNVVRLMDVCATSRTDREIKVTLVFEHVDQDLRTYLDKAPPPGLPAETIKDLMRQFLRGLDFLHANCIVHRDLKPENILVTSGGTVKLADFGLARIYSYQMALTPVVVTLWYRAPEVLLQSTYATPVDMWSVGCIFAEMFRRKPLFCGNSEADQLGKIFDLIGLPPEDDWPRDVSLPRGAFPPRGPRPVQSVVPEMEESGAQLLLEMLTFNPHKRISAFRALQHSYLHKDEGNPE
Sequence of CDK4-cyclinD1 (P24385 whole entry partner): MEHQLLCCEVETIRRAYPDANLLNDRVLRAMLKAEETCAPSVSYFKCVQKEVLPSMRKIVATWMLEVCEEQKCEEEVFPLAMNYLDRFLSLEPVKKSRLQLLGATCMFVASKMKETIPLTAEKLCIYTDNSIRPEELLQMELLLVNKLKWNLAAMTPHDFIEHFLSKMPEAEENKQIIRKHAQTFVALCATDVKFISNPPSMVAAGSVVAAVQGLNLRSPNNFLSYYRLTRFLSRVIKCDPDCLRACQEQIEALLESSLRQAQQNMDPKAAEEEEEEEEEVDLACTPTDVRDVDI
Sequence of MST4 (Q9P289 whole entry): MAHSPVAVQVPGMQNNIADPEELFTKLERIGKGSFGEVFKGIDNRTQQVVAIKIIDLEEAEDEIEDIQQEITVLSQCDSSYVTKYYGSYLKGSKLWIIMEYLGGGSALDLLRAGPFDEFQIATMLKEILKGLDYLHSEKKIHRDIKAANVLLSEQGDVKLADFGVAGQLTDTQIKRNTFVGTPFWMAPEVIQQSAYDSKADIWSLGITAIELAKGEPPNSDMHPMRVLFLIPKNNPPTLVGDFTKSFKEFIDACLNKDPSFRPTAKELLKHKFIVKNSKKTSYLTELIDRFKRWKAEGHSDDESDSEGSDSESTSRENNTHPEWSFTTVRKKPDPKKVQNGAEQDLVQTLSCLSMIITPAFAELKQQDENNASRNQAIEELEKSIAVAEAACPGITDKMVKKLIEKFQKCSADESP
T15 sequence (Q8TDR2 whole entry): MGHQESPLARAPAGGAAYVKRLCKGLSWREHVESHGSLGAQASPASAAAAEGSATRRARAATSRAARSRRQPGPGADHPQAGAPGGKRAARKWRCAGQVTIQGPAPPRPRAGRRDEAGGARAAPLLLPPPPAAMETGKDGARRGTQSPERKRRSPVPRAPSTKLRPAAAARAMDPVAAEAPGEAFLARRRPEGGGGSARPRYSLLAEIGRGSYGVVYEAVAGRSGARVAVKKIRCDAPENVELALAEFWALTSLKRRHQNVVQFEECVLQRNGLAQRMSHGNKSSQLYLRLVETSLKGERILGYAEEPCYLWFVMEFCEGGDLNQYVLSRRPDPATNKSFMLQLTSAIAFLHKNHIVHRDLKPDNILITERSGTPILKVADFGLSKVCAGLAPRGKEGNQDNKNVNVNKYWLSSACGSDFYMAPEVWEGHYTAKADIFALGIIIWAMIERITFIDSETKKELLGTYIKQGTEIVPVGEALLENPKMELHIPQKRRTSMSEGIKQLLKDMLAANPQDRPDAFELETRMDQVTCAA
T4 sequence (Q05397 whole entry): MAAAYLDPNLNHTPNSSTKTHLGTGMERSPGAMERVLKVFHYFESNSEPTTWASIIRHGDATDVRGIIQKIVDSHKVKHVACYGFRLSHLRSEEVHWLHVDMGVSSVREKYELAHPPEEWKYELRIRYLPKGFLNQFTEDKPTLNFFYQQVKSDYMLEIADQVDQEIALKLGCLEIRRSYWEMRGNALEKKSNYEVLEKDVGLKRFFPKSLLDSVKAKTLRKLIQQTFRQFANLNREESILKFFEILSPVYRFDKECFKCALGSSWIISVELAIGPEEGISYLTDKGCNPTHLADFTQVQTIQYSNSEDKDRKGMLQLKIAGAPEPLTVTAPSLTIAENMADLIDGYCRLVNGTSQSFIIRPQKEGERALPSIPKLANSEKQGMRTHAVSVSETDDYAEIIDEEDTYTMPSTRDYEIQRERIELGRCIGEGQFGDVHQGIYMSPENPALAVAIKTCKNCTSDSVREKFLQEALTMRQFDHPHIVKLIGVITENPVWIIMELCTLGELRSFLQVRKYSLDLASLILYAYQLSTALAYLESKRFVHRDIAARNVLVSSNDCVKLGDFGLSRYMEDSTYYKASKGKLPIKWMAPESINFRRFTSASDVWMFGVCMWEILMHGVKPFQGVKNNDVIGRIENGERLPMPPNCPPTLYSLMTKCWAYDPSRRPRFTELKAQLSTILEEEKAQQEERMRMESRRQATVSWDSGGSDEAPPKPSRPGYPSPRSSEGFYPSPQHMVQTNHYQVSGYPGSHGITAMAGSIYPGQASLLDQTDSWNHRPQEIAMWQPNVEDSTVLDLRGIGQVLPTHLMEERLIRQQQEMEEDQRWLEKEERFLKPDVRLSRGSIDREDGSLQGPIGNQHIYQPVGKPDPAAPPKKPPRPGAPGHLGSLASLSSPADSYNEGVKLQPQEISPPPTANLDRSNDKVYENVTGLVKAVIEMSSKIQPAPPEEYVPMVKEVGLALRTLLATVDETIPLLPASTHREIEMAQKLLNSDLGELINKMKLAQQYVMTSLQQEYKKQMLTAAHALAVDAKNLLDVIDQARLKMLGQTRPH
T1 sequence (P00533 with tags, fused parts or gaps DEL747-752/P753S): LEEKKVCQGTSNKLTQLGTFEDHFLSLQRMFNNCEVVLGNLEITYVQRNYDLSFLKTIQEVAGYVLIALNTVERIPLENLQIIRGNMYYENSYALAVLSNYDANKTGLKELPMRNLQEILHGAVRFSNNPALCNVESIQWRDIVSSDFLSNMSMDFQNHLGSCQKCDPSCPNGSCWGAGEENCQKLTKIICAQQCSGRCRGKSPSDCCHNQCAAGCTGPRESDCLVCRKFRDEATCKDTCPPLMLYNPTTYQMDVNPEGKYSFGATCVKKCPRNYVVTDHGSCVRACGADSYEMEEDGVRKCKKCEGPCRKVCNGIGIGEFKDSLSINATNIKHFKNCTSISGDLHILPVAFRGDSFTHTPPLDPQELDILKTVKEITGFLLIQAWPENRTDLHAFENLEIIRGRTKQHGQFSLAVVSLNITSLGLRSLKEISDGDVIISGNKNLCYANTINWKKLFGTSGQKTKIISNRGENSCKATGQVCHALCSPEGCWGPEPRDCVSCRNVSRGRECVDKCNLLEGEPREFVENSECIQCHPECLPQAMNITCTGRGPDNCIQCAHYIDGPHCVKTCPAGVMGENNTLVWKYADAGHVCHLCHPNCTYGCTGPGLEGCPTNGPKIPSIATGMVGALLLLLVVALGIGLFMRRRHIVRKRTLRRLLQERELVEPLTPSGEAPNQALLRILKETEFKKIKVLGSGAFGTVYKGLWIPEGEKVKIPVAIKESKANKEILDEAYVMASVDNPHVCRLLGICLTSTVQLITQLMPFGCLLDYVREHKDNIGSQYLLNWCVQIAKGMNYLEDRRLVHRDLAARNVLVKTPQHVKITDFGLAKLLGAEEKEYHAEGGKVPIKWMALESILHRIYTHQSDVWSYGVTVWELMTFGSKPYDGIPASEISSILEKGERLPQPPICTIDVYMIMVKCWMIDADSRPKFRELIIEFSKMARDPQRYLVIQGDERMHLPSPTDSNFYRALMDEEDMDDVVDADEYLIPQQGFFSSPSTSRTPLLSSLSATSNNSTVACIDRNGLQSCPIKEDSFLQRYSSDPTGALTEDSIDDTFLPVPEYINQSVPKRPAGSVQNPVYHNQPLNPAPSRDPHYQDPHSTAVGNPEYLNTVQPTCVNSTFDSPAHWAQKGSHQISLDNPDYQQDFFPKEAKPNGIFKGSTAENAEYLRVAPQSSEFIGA
T8 sequence (Q9NQU5 whole entry): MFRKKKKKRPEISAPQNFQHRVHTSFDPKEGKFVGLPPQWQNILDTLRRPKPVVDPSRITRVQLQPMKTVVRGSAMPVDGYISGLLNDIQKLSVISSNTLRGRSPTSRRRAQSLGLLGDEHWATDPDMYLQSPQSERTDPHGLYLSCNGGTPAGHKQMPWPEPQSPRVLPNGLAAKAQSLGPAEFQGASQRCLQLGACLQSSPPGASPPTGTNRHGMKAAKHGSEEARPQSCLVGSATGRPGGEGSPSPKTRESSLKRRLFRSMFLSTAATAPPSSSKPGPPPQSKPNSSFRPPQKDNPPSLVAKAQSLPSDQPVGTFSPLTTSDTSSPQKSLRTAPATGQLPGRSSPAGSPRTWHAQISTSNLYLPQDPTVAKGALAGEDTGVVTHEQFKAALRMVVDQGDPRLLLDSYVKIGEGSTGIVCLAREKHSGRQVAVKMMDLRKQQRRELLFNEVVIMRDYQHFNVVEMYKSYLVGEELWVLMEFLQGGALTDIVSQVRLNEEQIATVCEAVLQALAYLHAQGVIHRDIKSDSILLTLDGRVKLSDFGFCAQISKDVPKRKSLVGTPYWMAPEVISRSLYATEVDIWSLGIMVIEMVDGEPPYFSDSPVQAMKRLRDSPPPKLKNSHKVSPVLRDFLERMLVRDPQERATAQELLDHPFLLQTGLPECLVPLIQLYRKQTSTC
Sequence of MEK4 (P45985 whole entry): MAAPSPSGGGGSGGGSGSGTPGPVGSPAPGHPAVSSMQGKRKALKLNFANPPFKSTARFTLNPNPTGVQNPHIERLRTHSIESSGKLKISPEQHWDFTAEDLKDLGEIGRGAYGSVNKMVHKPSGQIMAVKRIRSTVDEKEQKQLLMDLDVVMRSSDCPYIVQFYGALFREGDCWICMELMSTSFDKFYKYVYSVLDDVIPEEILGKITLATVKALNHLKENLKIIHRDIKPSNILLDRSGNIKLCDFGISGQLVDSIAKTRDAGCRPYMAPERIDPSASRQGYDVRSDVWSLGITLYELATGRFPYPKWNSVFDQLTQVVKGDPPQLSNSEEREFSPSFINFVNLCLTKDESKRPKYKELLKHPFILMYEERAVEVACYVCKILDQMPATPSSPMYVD

## C=CC(=O)Nc1ccc(OC)c(Nc2cc(-c3[nH]c(CC)nc3-c3cccc(NC(=O)c4cccc5c4NC(=O)c4ccccc4N5)c3)ccn2)c1 [Compound 4, N-(3-(5-(2-((5-Acrylamido-2-methoxyphenyl)amino)pyridin-4-yl)-2-ethyl-1H-imidazol-4-yl)phenyl)-11-oxo-10,11-dihydro-5H-dibenzo[b,e][1,4]diazepine-9-carboxamide]
[1]
  remaining binding at 1 µM: 87%
[2]
  remaining binding at 1 µM: 100%
[3]
  remaining binding at 1 µM: 97%
[4]
  remaining binding at 1 µM: 94%
[5]
  remaining binding at 1 µM: 63%
[6]
  remaining binding at 1 µM: 91%
[7]
  remaining binding at 1 µM: 87%
[8]
  remaining binding at 1 µM: 16%
[9]
  remaining binding at 1 µM: 100%
[10]
  remaining binding at 1 µM: 81%
[11]
  remaining binding at 1 µM: 99%
[12]
  remaining binding at 1 µM: 100%
[13]
  remaining binding at 1 µM: 100%
[14]
  remaining binding at 1 µM: 97%
[15]
  remaining binding at 1 µM: 83%
[16]
  remaining binding at 1 µM: 100%
[17]
  remaining binding at 1 µM: 90%
[18]
  remaining binding at 1 µM: 100%
[19]
  remaining binding at 1 µM: 83%
[20]
  remaining binding at 1 µM: 89%
[21]
  remaining binding at 1 µM: 94%
[22]
  remaining binding at 1 µM: 100%
[23]
  remaining binding at 1 µM: 93%
[24]
  remaining binding at 1 µM: 100%
[25]
  remaining binding at 1 µM: 84%
[26]
  remaining binding at 1 µM: 73%
[27]
  remaining binding at 1 µM: 74%
[28]
  remaining binding at 1 µM: 71%
[29]
  remaining binding at 1 µM: 94%
[30]
  remaining binding at 1 µM: 100%
[31]
  remaining binding at 1 µM: 100%
[32]
  remaining binding at 1 µM: 100%
[33]
  remaining binding at 1 µM: 100%
[34]
  remaining binding at 1 µM: 100%
[35]
  remaining binding at 1 µM: 100%
[36]
  remaining binding at 1 µM: 69%
[37]
  remaining binding at 1 µM: 22%
[38]
  remaining binding at 1 µM: 62%
